Source: US6737383B1, “Herbicidal oxadiazolidines” (priority 1999, dated 2004)

Key:
bamyardgrass = assay: Test B flood test barnyardgrass; format: in vivo, Echinochloa crus-galli
Outline: (§1)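 Plants were grown to the 2-leaf stage before treatment with test chemical, then held in a greenhouse for twelve to sixteen days. Injury was visually rated against untreated controls on a 0–10 scale, where 0 is no effect and 10 is complete control.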

sugar beet = assay: Test B pre/postemergence sugar beet; format: in vivo, Beta vulgaris
Outline: (§2)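 Herbicidal effect was estimated by eye on a ten-point control scale after plants spent twelve to sixteen days in a greenhouse following soil or foliar treatment. Foliar sprays targeted plants at one to four leaves; all doses were formulated in a non-phytotoxic solvent with surfactant.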

wild oat = assay: Test B pre/postemergence wild oat; format: in vivo, Avena fatua
Outline: as §2

rape = assay: Test B pre/postemergence rape; format: in vivo, Brassica napus
Outline: as §2

crabgrass = assay: Test B pre/postemergence crabgrass; format: in vivo, Digitaria sanguinalis
Outline: as §2

soybean = assay: Test B pre/postemergence soybean; format: in vivo, Glycine max
Outline: as §2

corn = assay: Test B pre/postemergence corn; format: in vivo, Zea mays
Outline: as §2

duck salad = assay: Test B flood test duck salad; format: in vivo, Heteranthera limosa
Outline: as §1

rice = assay: Test B flood test rice; format: in vivo, Oryza sativa
Outline: as §1

smallflower flatsedge = assay: Test B flood test smallflower flatsedge; format: in vivo, Cyperus difformis
Outline: as §1

surinam grass = assay: Test B pre/postemergence surinam grass; format: in vivo, Brachiaria decumbens
Outline: as §2

cocklebur = assay: Test B pre/postemergence cocklebur; format: in vivo, Xanthium strumarium
Outline: as §2

pigweed = assay: Test B pre/postemergence pigweed; format: in vivo, Amaranthus retroflexus
Outline: as §2

bedstraw = assay: Test B pre/postemergence bedstraw; format: in vivo, Galium aparine
Outline: as §2

morningglory = assay: Test B pre/postemergence morningglory; format: in vivo, Ipomoea hederacea
Outline: as §2

velvetleaf = assay: Test B pre/postemergence velvetleaf; format: in vivo, Abutilon theophrasti
Outline: as §2

[1] = Postemergence, Rate 62 g/ha, scale 0 to 10, 0 is no effect, 10 is complete control
[2] = Rate 125 g/ha, Postemergence section (flood test species), scale 0 to 10, 0 no effect, 10 complete control
[3] = Rate 500 g/ha, listed under Postemergence (flood test species), scale 0 to 10, 0 no effect, 10 complete control
[4] = flood test, listed under Postemergence, Rate 250 g/ha, scale 0 to 10, 0 no effect, 10 complete control
[5] = Postemergence, Rate 250 g/ha, scale 0 to 10, 0 no effect, 10 complete control
[6] = Preemergence, Rate 62 g/ha, scale 0 to 10 (0 no effect, 10 complete control)
[7] = Preemergence, Rate 125 g/ha, scale 0 to 10 (0 no effect, 10 complete control)
[8] = Preemergence, Rate 250 g/ha, scale of 0 to 10 where 0 is no effect and 10 is complete control
[9] = Preemergence, Rate 500 g/ha, scale 0 (no effect) to 10 (complete control)
[10] = Rate 125 g/ha, Postemergence, scale 0 to 10, 0 no effect, 10 complete control
[11] = Rate 500 g/ha, Postemergence, scale 0 to 10, 0 no effect, 10 complete control

## Cc1cc(C)c(-n2c(=O)on(C(=O)N(c3ccc(Cl)cc3)C(C)C)c2=O)c(C)c1 [Compound 61]
bamyardgrass; [1]
  Barnyardgrass plant response rating: 0
bamyardgrass; [2]
  Barnyardgrass plant response rating: 0
bamyardgrass; [3]
  Barnyardgrass plant response rating: 0
bamyardgrass; [4]
  Barnyardgrass plant response rating: 0
Sugar beet; [1]
  Sugarbeets plant response rating: 0
Sugar beet; [5]
  Sugarbeets plant response rating: 2
Sugar beet; [6]
  Sugarbeets plant response rating: 0
Sugar beet; [7]
  Plant response rating, Sugarbeets: 0
Sugar beet; [8]
  Plant response rating, Sugarbeets: 5
Sugar beet; [9]
  Sugarbeets plant response rating: 6
Sugar beet; [10]
  Sugarbeets plant response rating: 2
Sugar beet; [11]
  Sugarbeets plant response rating: 6
Wild oat; [1]
  Wild oats plant response rating: 0
Wild oat; [5]
  Wild oats plant response rating: 0
Wild oat; [6]
  Wild oats plant response rating: 0
Wild oat; [7]
  Plant response rating, Wild oats: 0
Wild oat; [8]
  Plant response rating, Wild oats: 0
Wild oat; [9]
  Wild oats plant response rating: 3
Wild oat; [10]
  Wild oats plant response rating: 0
Wild oat; [11]
  Wild oats plant response rating: 0
rape; [1]
  Rape plant response rating: 0
rape; [5]
  Rape plant response rating: 0
rape; [6]
  Rape plant response rating: 0
rape; [7]
  Plant response rating, Rape: 0
rape; [8]
  Plant response rating, Rape: 0
rape; [9]
  Rape plant response rating: 0
rape; [10]
  Rape plant response rating: 0
rape; [11]
  Rape plant response rating: 3
crabgrass; [1]
  Crabgrass plant response rating: 0
crabgrass; [5]
  Crabgrass plant response rating: 0
crabgrass; [6]
  Crabgrass plant response rating: 0
crabgrass; [7]
  Plant response rating, Crabgrass: 4
crabgrass; [8]
  Plant response rating, Crabgrass: 7
crabgrass; [9]
  Crabgrass plant response rating: 8
crabgrass; [10]
  Crabgrass plant response rating: 0
crabgrass; [11]
  Crabgrass plant response rating: 0
soybean; [1]
  Soybean plant response rating: 1
soybean; [5]
  Soybean plant response rating: 4
soybean; [6]
  Soybean plant response rating: 0
soybean; [7]
  Plant response rating, Soybean: 0
soybean; [8]
  Plant response rating, Soybean: 0
soybean; [9]
  Soybean plant response rating: 0
soybean; [10]
  Soybean plant response rating: 3
soybean; [11]
  Soybean plant response rating: 5
corn; [1]
  Corn plant response rating: 0
corn; [5]
  Corn plant response rating: 0
corn; [6]
  Corn plant response rating: 0
corn; [7]
  Plant response rating, Corn: 0
corn; [8]
  Plant response rating, Corn: 0
corn; [9]
  Corn plant response rating: 0
corn; [10]
  Corn plant response rating: 0
corn; [11]
  Corn plant response rating: 0
Duck salad; [1]
  Ducksalad plant response rating: 0
Duck salad; [2]
  Ducksalad plant response rating: 0
Duck salad; [3]
  Ducksalad plant response rating: 0
Duck salad; [4]
  Ducksalad plant response rating: 0
rice; [1]
  Rice plant response rating: 0
rice; [2]
  Rice plant response rating: 0
rice; [3]
  Rice plant response rating: 0
rice; [4]
  Rice plant response rating: 0
Smallflower flatsedge; [1]
  S. Flatsedge plant response rating: 0
Smallflower flatsedge; [2]
  S. Flatsedge plant response rating: 0
Smallflower flatsedge; [3]
  S. Flatsedge plant response rating: 0
Smallflower flatsedge; [4]
  S. Flatsedge plant response rating: 0
Surinam grass; [1]
  B. signalgrass plant response rating: 0
Surinam grass; [5]
  B. signalgrass plant response rating: 0
Surinam grass; [6]
  B. signalgrass plant response rating: 0
Surinam grass; [7]
  Plant response rating, B. signalgrass: 1
Surinam grass; [8]
  Plant response rating, B. signalgrass: 5
Surinam grass; [9]
  B. signalgrass plant response rating: 5
Surinam grass; [10]
  B. signalgrass plant response rating: 0
Surinam grass; Rate 500 g/ha, Postemergence, scale of 0 to 10 where 0 is no effect and 10 is complete control
  B. signalgrass plant response rating: 1
cocklebur; [1]
  Cocklebur plant response rating: 0
cocklebur; [5]
  Cocklebur plant response rating: 0
cocklebur; [6]
  Cocklebur plant response rating: 0
cocklebur; [7]
  Plant response rating, Cocklebur: 0
cocklebur; [8]
  Plant response rating, Cocklebur: 0
cocklebur; [9]
  Cocklebur plant response rating: 0
cocklebur; [10]
  Cocklebur plant response rating: 0
cocklebur; [11]
  Cocklebur plant response rating: 1
pigweed; [1]
  Redroot pigweed plant response rating: 1
pigweed; [5]
  Redroot pigweed plant response rating: 3
pigweed; [6]
  Redroot pigweed plant response rating: 0
pigweed; [7]
  Plant response rating, Redroot pigweed: 0
pigweed; [8]
  Plant response rating, Redroot pigweed: 1
pigweed; [9]
  Redroot pigweed plant response rating: 3
pigweed; [10]
  Redroot pigweed plant response rating: 2
pigweed; [11]
  Redroot pigweed plant response rating: 4
bedstraw; [1]
  Bedstraw plant response rating: 2
bedstraw; [5]
  Bedstraw plant response rating: 6
bedstraw; [6]
  Bedstraw plant response rating: 0
bedstraw; [7]
  Plant response rating, Bedstraw: 0
bedstraw; [8]
  Plant response rating, Bedstraw: 2
bedstraw; [9]
  Bedstraw plant response rating: 2
bedstraw; [10]
  Bedstraw plant response rating: 3
morningglory; [1]
  Morningglory plant response rating: 2
morningglory; [5]
  Morningglory plant response rating: 4
morningglory; [6]
  Morningglory plant response rating: 0
morningglory; [7]
  Plant response rating, Morningglory: 0
morningglory; [8]
  Plant response rating, Morningglory: 0
morningglory; [9]
  Morningglory plant response rating: 0
morningglory; [10]
  Morningglory plant response rating: 2
morningglory; [11]
  Morningglory plant response rating: 8
velvetleaf; [1]
  Velvetleaf plant response rating: 0
velvetleaf; [5]
  Velvetleaf plant response rating: 0
velvetleaf; [6]
  Velvetleaf plant response rating: 0
velvetleaf; [7]
  Plant response rating, Velvetleaf: 0
velvetleaf; [8]
  Plant response rating, Velvetleaf: 0
velvetleaf; [9]
  Velvetleaf plant response rating: 0
velvetleaf; [10]
  Velvetleaf plant response rating: 0
velvetleaf; [11]
  Velvetleaf plant response rating: 0
